The text below walks through data of patent US4898867A, “Thienopyrimidine derivaties as aldose-reductase inhibitors” (Taiho Pharmaceutical Company, Limited, priority 1987, dated 1990).

Where a name gives a salt, the structure may show the parent alone.

The assay has as its target T1, aldose-reductase (AR) (Rattus norvegicus, UniProt P07943).
T1 construct: The supernatant obtained was used as AR; from tissue; host or cells: lenses of male Wistar rats (10000 rpm supernatant of homogenate)
Description: Aldose-reductase inhibitory activity (decrease in absorbance of NADPH at 340 nm, glyceraldehyde substrate). In kind it is biochemical, Wister male rats (lenses). The note with it: rat lens AR supernatant, 0.1M phosphate buffer pH 6.2, 30° C. The protocol:
The aldose-reductase (AR) activity was evaluated by determining spectrophotometrically the decrease in absorbance of NADPH at 340 nm due to the reduction of the substrate, i.e., glyceraldehyde according to the method described in Biochemical Pharmacology 25, pp 2505-2513 (1976).
The lenses of Wister male rats was homogenized with 0.5 ml of 0.1M phosphate buffer (pH 6.2) per lens by a glass homogenizer and the homogenate was centrifuged at 10000 rpm for 10 minutes. The supernatant obtained was used as AR.
The determination of the AR activity was conducted as follows. A 700 μl quantity of 0.1M phosphate buffer (pH 6.2), 100 μl of 2.21 mM NADPH, 100 μl of AR and 5 μl of DMSO containing each of test compounds in varying concentrations were placed in a cell for test sample, and 800 μl of 0.1M phosphate buffer (pH 6.2), 100 μl of 2.21 mM NADPH, 100 μl of AR and 5 μl of DMSO were placed in a cell for control. Then the solutions in the cells were thoroughly mixed together and the mixtures were maintained at 30° C. Then 100 μl of 100 mM glyceraldehyde maintained at 30° C. was added to a cell for test sample and quickly blended to initiate the reaction. The AR activity was determined from the rate of change of absorbance per minute in the linear part of variations of absorbance during a period of from 1 minute to three minutes after the start of the reaction, and a dose-response curve was drawn.

As for `Cc1c(Br)sc2c1c(=O)n(Cc1ccc(Cl)c(Cl)c1)c(=O)n2CC(=O)O` [Compound I-10], the IC50 – broadly, the concentration that inhibits the measured activity by half – came to 26 nM.

For the compound `O=C(O)Cn1c(=O)n(Cc2ccc(Br)cc2F)c(=O)c2cc(C3CCCC3)sc21` [Compound I-16], half-maximal inhibition (IC50) required 30 nM.

For `Cc1sc2c(c1C)c(=O)n(Cc1ccc(Cl)cc1Cl)c(=O)n2CC(=O)O` [Compound I-2], half-maximal inhibition (IC50) was put at 20 nM.

Consider `O=C(O)Cn1c(=O)n(Cc2ccc(Br)cc2F)c(=O)c2c3c(sc21)CCCC3` [Compound I-15], for which the IC50 was 23 nM. The IC50 values of the last two compounds are within 1.5-fold of each other.

`O=C(O)Cn1c(=O)n(Cc2ccc(Br)cc2F)c(=O)c2cc(Cl)sc21` [I-24 (Lysine salt)] registered an IC50 of 25 nM.

Take `CC(C)c1cc2c(=O)n(Cc3ccc(Cl)cc3Cl)c(=O)n(CC(=O)O)c2s1` [Compound I-4]: the midpoint of inhibition, the IC50, lay at 17 nM.

`Cc1csc2c1c(=O)n(Cc1ccc(Br)cc1F)c(=O)n2CC(=O)O` [Compound I-20, 1-carboxymethyl-3-(4-bromo-2-fluorobenzyl)-5-methylthieno[2,3-d]pyrimidin-2,4(1H, 3H)-dione] showed an IC50 of 24 nM.

For `O=C(O)Cn1c(=O)n(Cc2ccc(Br)cc2F)c(=O)c2ccsc21` [Compound I-19], the midpoint of inhibition, the IC50, lay at 20 nM.

For the compound `CC(C)c1cc2c(=O)n(Cc3ccc(Cl)c(Cl)c3)c(=O)n(CC(=O)O)c2s1` [Compound I-3], the IC50 worked out at 26 nM.

For `O=C(O)Cn1c(=O)n(Cc2ccc(Br)cc2F)c(=O)c2cc(-c3ccccc3)sc21` [Compound I-13], it took 34 nM to reach half-maximal inhibition (IC50).

On to `O=C(O)Cn1c(=O)n(Cc2ccc(Cl)cc2Cl)c(=O)c2c3c(sc21)CCCC3` [Compound I-8], for which the IC50 turned out to be 42 nM.

The compound `Cc1sc2c(c1C)c(=O)n(Cc1ccc(Cl)cc1)c(=O)n2CC(=O)O` [Compound I-1, 1-carboxymethyl-3-(4-chlorobenzyl)-5,6-dimethylthieno[2,3-d]pyrimidin-2,4(1H, 3H)-dione] gave an IC50 of 75 nM. Compared with the last compound, the IC50 is about 1.8-fold higher.

Consider `Cc1sc2c(c1C)c(=O)n(Cc1ccc(Br)cc1F)c(=O)n2CC(=O)O` [Compound I-14], for which 21 nM corresponded to half-maximal inhibition (IC50).

For the compound `Cc1c(Cl)sc2c1c(=O)n(Cc1ccc(Cl)c(Cl)c1)c(=O)n2CC(=O)O` [Compound I-11], the IC50 is 25 nM.

Compound `CC(C)c1cc2c(=O)n(Cc3ccc(Br)cc3F)c(=O)n(CC(=O)O)c2s1` [Compound I-17] displayed an IC50 of 22 nM.

As to `Cc1csc2c1c(=O)n(Cc1ccc(Cl)c(Cl)c1)c(=O)n2CC(=O)O` [Compound I-5], the IC50 was found to be 30 nM.
